Values after ≈ are worked out from the molar mass of the structure shown.
How the values were obtained:
Assay type in all cases: functional
A-431 = assay: Cytotoxicity against human A431 cells after 3 days by sulforhodamine B assay; conditions: A-431, 72 h, read-out: ED50 (the source's name)
[1] = Cytotoxicity against human BC1 cells after 3 days by sulforhodamine B assay; conditions: BC1, 72 h, read-out: ED50 (the source's name)
Col2 = assay: Cytotoxicity against human Col2 cells after 3 days by sulforhodamine B assay; conditions: Col2, 72 h, read-out: ED50 (the source's name)
HT = assay: Cytotoxicity against human HT cells after 3 days by sulforhodamine B assay; conditions: 72 h, read-out: ED50 (the source's name)
KB = assay: Cytotoxicity against human KB cells after 3 days by sulforhodamine B assay; conditions: 72 h, read-out: ED50 (the source's name)
[2] = Cytotoxicity against human KBV1 cells after 3 days by sulforhodamine B assay; conditions: KB-V1, 72 h, read-out: ED50 (the source's name)
LNCaP = assay: Cytotoxicity against human LNCAP cells after 3 days by sulforhodamine B assay; conditions: 72 h, read-out: ED50 (the source's name)
Lu1 = assay: Cytotoxicity against human Lu1 cells after 3 days by sulforhodamine B assay; conditions: Lu1, 72 h, read-out: ED50 (the source's name)
SK-MEL-2 = assay: Cytotoxicity against human SK-MEL-2 cells after 3 days by sulforhodamine B assay; conditions: SK-MEL-2, 72 h, read-out: ED50 (the source's name)
ZR-75-1 = assay: Cytotoxicity against human ZR-75-1 cells after 3 days by sulforhodamine B assay; conditions: ZR-75-1, 72 h, read-out: ED50 (the source's name)
P388 = assay: Cytotoxicity against mouse P388 cells after 3 days by sulforhodamine B assay; conditions: P388, 72 h, read-out: ED50 (the source's name)

Compound | EC50 (A-431) [µg/mL] | EC50 [1] [µg/mL] | EC50 (Col2) [µg/mL] | EC50 (HT) [µg/mL] | EC50 (KB) [µg/mL] | EC50 [2] [µg/mL] | EC50 (LNCaP) [µg/mL] | EC50 (Lu1) [µg/mL] | EC50 (SK-MEL-2) [µg/mL] | EC50 (ZR-75-1) [µg/mL] | EC50 (P388) [µg/mL]
CN1CCC2=C[C@H](O)[C@H]3OC(=O)c4cc5c(cc4[C@H]3[C@@H]21)OCO5 | 6.3 (≈ 20 µM) | > 20 | 7.8 (≈ 24.7 µM) | 4.7 (≈ 14.9 µM) | > 20 | > 20 | 1.8 (≈ 5.71 µM) | 5.2 (≈ 16.5 µM) | > 20 | 7.3 (≈ 23.2 µM) | 4 (≈ 12.7 µM)
CO[C@@H]1C=C[C@@]23c4cc5c(cc4[C@H](O)N(C[C@@H]2O)[C@H]3C1)OCO5 | 3 (≈ 9.45 µM) | > 20 | 6 (≈ 18.9 µM) | 1.6 (≈ 5.04 µM) | 3.6 (≈ 11.3 µM) | 8.4 (≈ 26.5 µM) | 0.7 (≈ 2.21 µM) | 2.1 (≈ 6.62 µM) | 1.9 (≈ 5.99 µM) | 2.6 (≈ 8.19 µM) | 0.4 (≈ 1.26 µM)
CO[C@@H]1C=C[C@@]23c4cc5c(cc4CO[C@]2(O)CN(C)[C@H]3C1)OCO5 [TAZETTINE] | 11.1 (≈ 33.5 µM) | > 20 | 5 (≈ 15.1 µM) | 11.8 (≈ 35.6 µM) | 7.3 (≈ 22 µM) | > 20 | 5.9 (≈ 17.8 µM) | 11.1 (≈ 33.5 µM) | 12.9 (≈ 38.9 µM) | 6.9 (≈ 20.8 µM) | 1 (≈ 3.02 µM)

— ChEMBL document CHEMBL1147362, “Cytotoxicity of Hymenocallis expansa alkaloids” (1993)
